Tested on: primary human dermal papilla cells
Experiment: Survival of metabolically stressed primary human dermal papilla cells (ATP, Cell Titer Glo)
Format: cell-based
Details: for Survival: 48 hr stress, Vehicle = 1.00; for benefit in increasing the survival of stressed dermal papilla cells (in words): additional testing, individual components versus mixture of the three
From the text: The dermal papilla, in normal human hair, is the control center for hair diameter and growth. Increasing survival of dermal papilla cells in situ leads to increased hair diameter and to a longer anagen phase which results in longer hair, a higher hair density, and potentially delayed emergence of gray hair. The appearance of this hair results in healthier, younger looking hair. Accordingly, an increase in survival of dermal papilla cells correlates with healthier hair showing an increase in hair diameter, longer hair, higher hair density, and a delayed on-set of gray hair.
Primary human dermal papilla cells were metabolically stressed for 48 hours in reduced standard tissue culture media. During this period of stress the cells were treated with the mixtures below. After 48 hr the metabolic activity of the cells was measured by the amount of ATP using the Cell Titer Glo™ kit (Promega).

Cn1c(=O)c2c(ncn2C)n(C)c1=O [Caffeine, caffeine]
Survival (Caffeine 0.02%, first series): 0.94 | Survival (Caffeine 0.05%, second series): 0.98 | benefit in increasing the survival of stressed dermal papilla cells (in words): little benefit

O=c1cc(-c2ccc(O)cc2)oc2cc(O)cc(O)c12 [apigenin, 5,7-Dihydroxy-2-(4-hydroxyphenyl)-4H-1-benzopyran-4-one]
increase in the hair follicle cells that survived (metabolically stressed 48 hr in reduced standard tissue culture media, ATP by Cell Titer Glo, concentrations not given): 122%

NC(=O)c1cccnc1 [Niacinamide, niacinamide]
Survival (Niacinamide 0.5 mM, second series): 1.02 | Survival (Niacinamide 1.5 mM, first series): 0.71 | benefit in increasing the survival of stressed dermal papilla cells (in words): little benefit

CC(C)(CO)[C@@H](O)C(=O)NCCCO [Panthenol, panthenol]
Survival (Panthenol 0.03%, first series): 1.02 | Survival (Panthenol 0.3%, second series): 0.75 | benefit in increasing the survival of stressed dermal papilla cells (in words): little benefit
